Assay [1] has as its target T1, HIV-1 integrase (wild-type IN) (Human immunodeficiency virus type 1 group M subtype B, UniProt P12497). The experiment in a line: biochemical.
Assay [2] concerns the target T1, HIV-1 integrase (wild-type IN). Nature of the assay: biochemical. This is another data set of the same source.
For assay [3], the system named is wild-type HIV-1 strain (strain LAI). The experiment in a line: Anti-HIV-1 activity in infected human PBMCs. The note with it: cytotoxicity versus anti-HIV activity. In kind it is cell-based.
The mark [4] stands for this setting: IC50 ST (strand transfer), wild-type IN 200 nM, 7.5 mM MnCl2.
Setting [5] is: Actual ST pIC50, −log IC50 of strand transfer, used for 3D-QSAR.

Where two headings read alike, the source gives them in different places. Some results are limits rather than exact numbers.

Broadly, the IC50 is the concentration needed to halve the response being measured. Low readings indicate inhibition by little substance, high ones a need for much substance.

`O=C(NCc1ccc(F)cc1)c1cc(Br)ccc1O` [Compound 63, 5-Bromo-N-(4-fluoro-benzyl)-2-hydroxybenzamide] came in with a half-maximal inhibitory concentration (IC50) in assay [1] (setting [4]) of over 100 µM. For the molecule `COc1ccc2cc(C=CC(=O)c3cc(Br)cc(C(=O)O)c3O)ccc2c1` [Compound 48, 5-Bromo-2-hydroxy-3-[3-(6-methoxynaphthalen-2-yl)-acryloyl]benzoic acid], the IC50 is 55 µM in assay [1] (setting [5]) and 54 ± 25 µM in assay [1] (setting [4]).

As for `N#Cc1cc(Br)cc(C(=O)/C=C/c2c(Cl)ccc(Cl)c2Cl)c1O` [Compound 56, 5-Bromo-2-hydroxy-3-[3-(2,3,6--trichlorophenyl)-acryloyl]benzonitrile], the IC50 in assay [2] is over 100 µM. Still for that read-out and setting: the result for `O=C(O)c1cc(Br)cc(C(=O)/C=C/c2cccc(OC(F)(F)F)c2)c1O` [Compound 52, 5-Bromo-2-hydroxy-3-[3-(3-trifluoromethoxyphenyl)-acryloyl]benzoic acid] reads over 100 µM; that for `Cc1cc(C)cc(/C=C/C(=O)c2cc(Br)cc(C(=O)O)c2O)c1` [Compound 39, 5-Bromo-3-[3-(3,5-dimethylphenyl)-acryloyl]-2-hydroxybenzoic acid], over 100 µM. `O=C(O)c1cccc(CCCc2ccccc2)c1O` [Compound 9, 2-hydroxy-3-(3-phenylpropyl)benzoic acid]: the results for the 50% inhibitory concentration (IC50) in assay [1] (setting [4]) and in assay [2] were over 100 µM and 91 µM, respectively. The molecule `O=Cc1cc(Br)cc(C(=O)NCc2ccc(F)cc2)c1O` [Compound 8, 5-Bromo-N-(4-fluorobenzyl)-3-formyl-2-hydroxybenzamide] came in with a 50% inhibitory concentration (IC50) in assay [2] of over 100 µM. As for `O=C(O)c1cc(F)cc(C(=O)CCc2cc(Cl)ccc2Cl)c1O` [Compound 60, 3-[3-(2,5-dichlorophenyl)propionyl]-5-fluoro-2-hydroxybenzoic acid], the 50% inhibitory concentration (IC50) in assay [2] was over 100 µM. Turning to `O=C(O)c1cc(Cl)cc(C(=O)/C=C/c2ccc(Cl)cc2Cl)c1O` [Compound 27, 5-Chloro-3-[3-(2,4-dichlorophenyl)-acryloyl]-2-hydroxybenzoic acid], the half-inhibitory concentration (IC50) in assay [1] (setting [4]) was over 100 µM. As to `O=C(O)c1cc(Br)cc(C(=O)/C=C/c2c(Cl)ccc(Cl)c2Cl)c1O` [Compound 25, 5-Bromo-2-hydroxy-3-[3-(2,3,6-trichlorophenyl)-acryloyl]benzoic acid], the 50% inhibitory concentration (IC50) in assay [1] (setting [5]) is 3.98 µM; in assay [1] (setting [4]) it was under 3.7 µM. On to `O=C(O)c1cc(Br)cc(C(=O)/C=C/c2ccccc2-c2ccco2)c1O` [Compound 50, 5-Bromo-3-[3-(2-furan-2-yl-phenyl)-acryloyl]-2-hydroxybenzoic acid], for which, in assay [2], the IC50 was over 100 µM. On the same count and under the same terms, the result for `COc1cc(F)c(/C=C/C(=O)c2cc(Br)cc(C(=O)O)c2O)cc1OC` [Compound 41, 5-Bromo-3-[3-(2-fluoro-4,5-dimethoxyphenyl)-acryloyl]-2-hydroxybenzoic acid] reads over 100 µM; that for `O=C(O)c1cc(Br)cc(C(=O)NCc2ccc(F)cc2)c1O` [Compound 61, 5-Bromo-N-(4-fluorobenzyl)-2-hydroxyisophthalamic acid], over 100 µM. Turning to `COc1ccc(/C=C/C(=O)c2cc(Br)cc(C(=O)O)c2O)c(Cl)c1OC` [Compound 40, 5-Bromo-3-[3-(2-chloro-3,4-dimethoxyphenyl)-acryloyl]-2-hydroxybenzoic acid], the IC50 in assay [2] was over 100 µM. Regarding `Cc1cccc(C(=O)NCc2ccc(F)cc2)c1O` [Compound 62, N-(4-Fluoro-benzyl)-2-hydroxy-3-methylbenzamide], the IC50 in assay [1] (setting [4]) is over 100 µM. As for `O=C(/C=C/c1cc(Cl)cc(Cl)c1Cl)c1cc(Br)cc([N+](=O)[O-])c1O` [Compound 58, 1-(5-Bromo-2-hydroxy-3-nitrophenyl)-3-(2,3,5-trichlorophenyl)propenone], the half-maximal inhibitory concentration (IC50) is 69.2 µM in assay [1] (setting [5]), 68 ± 5 µM in assay [1] (setting [4]) and over 333 µM in assay [2]. Take `O=C(O)c1cc(Br)cc(C(=O)/C=C/c2ccc3sccc3c2)c1O` [Compound 49, 3-(3-Benzo[b]thiophen-5-yl-acryloyl)-5-bromo-2-hydroxybenzoic acid]: the Selectivity index result in assay [3] was “up to 4 fold”. Regarding `O=C(/C=C/c1c(Cl)ccc(Cl)c1Cl)c1cc(Br)cc([N+](=O)[O-])c1O` [Compound 59, 1-(5-Bromo-2-hydroxy-3-nitrophenyl)-3-(2,3,6-trichlorophenyl)propenone], the concentration for half-maximal inhibition (IC50) in assay [1] (setting [5]) was 21.4 µM; in assay [1] (setting [4]), 21 ± 3 µM; in assay [2] it was 36 ± 4 µM. For `Cc1cc(C(=O)O)c(O)c(C(=O)/C=C/c2c(Cl)ccc(Cl)c2Cl)c1` [Compound 57, 2-Hydroxy-5-methyl-3-[3-(2,3,6-trichlorophenyl)-acryloyl]benzoic acid], in assay [1] (ST inhibition, comparison with compound 25), the “Times less active than corresponding Br-substituted compound 25” value was 13 times. Besides, the IC50 in assay [2] is over 100 µM.
